Data as given in article PMC12277590 (Drug Design, Development and Therapy, 2025).
pIC50: −log10 of the molar value. Like-named read-outs stand apart in the source and are kept apart here. Values belong to the molecule of their own block, whether it stands above or below them.

How the values were obtained:
[1] = assay type: in vivo, male Sprague-Dawley rats; settings: rats
[2] = cited from earlier work
human UGT1A9 = settings: ref 14; cited from earlier work
[3] = oral intake in human; cited from earlier work
UGT1A3 = settings: ref 14; cited from earlier work
human UGT1A1 = settings: ref 14; cited from earlier work
plasma proteins = settings: cited from earlier work
[4] = markedly low water solubility and high permeability; cited from earlier work
BCRP = settings: read-out: IC50, BCRP; cited from earlier work
MRP2 = settings: read-out: IC50, MRP2; cited from earlier work
P-gp = settings: read-out: IC50, P-gp; cited from earlier work
[5] = cited from earlier work; remark: listed apart in the source
CYP2C19 = settings: in vitro; cited from earlier work
[6] = after multiple doses of telmisartan vs donafenib alone
[7] = after multiple doses of telmisartan vs sorafenib alone
[8] = oral sorafenib in humans, mass balance
[9] = after multiple doses of donafenib vs telmisartan alone

decrease in t1/2 of donafenib [1, 6]: 35.0%
increase in CLz/F of donafenib [1, 6]: 87.5%
SMILES: [2H]C([2H])([2H])NC(=O)c1cc(Oc2ccc(NC(=O)Nc3ccc(Cl)c(C(F)(F)F)c3)cc2)ccn1 [Donafenib]
N-oxidation (M2), % of total drug ([2]; ref 41): 24.76%
glucuronidation (M7), % of total drug ([2]; ref 41): 4.82%

decrease in CLz/F of sorafenib [1, 7]: 46.0%
decrease in Vz/F of sorafenib [1, 7]: 50.4%
increase in AUC0-t of sorafenib [1, 7]: 77.7%
increase in AUC0-∞ of sorafenib [1, 7]: 75.8%
increase in Cmax of sorafenib [1, 7]: 60.9%
SMILES: CNC(=O)c1cc(Oc2ccc(NC(=O)Nc3ccc(Cl)c(C(F)(F)F)c3)cc2)ccn1 [Sorafenib]
inhibition of human UGT1A9 (human UGT1A9): potent inhibitor
time to maximum plasma concentration [3]: about 3 hours
inhibitory effects on UGT1A3 (UGT1A3): no inhibitory effects
inhibition of human UGT1A1 (human UGT1A1): potent inhibitor
drug eliminated as oxidative metabolites [2, 8]: less than 5%
drug eliminated as sorafenib-β-D-glucuronide (SG) [2, 8]: 15%
binding to plasma proteins (plasma proteins; sorafenib, human): more than 99%

decrease in CLz/F of telmisartan [1, 9]: 57.3%
decrease in Vz/F of telmisartan [1, 9]: 45.6%
increase in AUC0-∞ of telmisartan [1, 9]: 0.98 fold
effect of sorafenib on the pharmacokinetic parameters of telmisartan ([1]; multiple doses of sorafenib vs telmisartan alone): does not significantly affect
SMILES: CCCc1nc2c(C)cc(-c3nc4ccccc4n3C)cc2n1Cc1ccc(-c2ccccc2C(=O)O)cc1 [Telmisartan]
BCS class [4]: class II
pIC50 (BCRP): 5.17
pIC50 (MRP2): 4.42
pIC50 (P-gp): 4.91
proportion metabolized to acyl-glucuronides by UGT1A3 ([5]; ref 25,27): 11%
half-life for elimination ([5]; ref 26): about 24 hours
proportion metabolized to acyl-glucuronides by UGT1A3 ([5]; ref 34): 11%
inhibition of CYP2C19 (CYP2C19): minor inhibition
binding to plasma proteins (plasma proteins; telmisartan): 99.5%
